Here are results for one compound from patent US20250228775A1, “ETHANOLIC RESINIFERATOXIN CONCENTRATE” (Gruenenthal GmbH, priority 2024, published 2025).

The test system of series [1] is moderate to severe pain due to osteoarthritis of the knee. The settings on record: one-time intraarticular dose 5 to 30 μg; cited from earlier work.
Series [2] relates to chronic osteoarthritic knee joint pain. Kind of series: Randomized, double-blind, placebo-controlled, single-dose trial of intraarticular Resiniferatoxin (Example 3). The class given is in vivo, human. The settings on record: for subjects with severe adverse events: none considered related to investigational medicinal product or Ropivacaine. How it is done: The primary objective of this study was to compare the analgesic effects of single intraarticular injections of Resiniferatoxin (100 or 400 ng) compared to placebo, at 3 and 6 months postinjection, in participants with chronic osteoarthritic knee joint pain. Secondary objectives were to evaluate the analgesic effects of Resiniferatoxin versus placebo in terms of a responder analysis (percentage of subjects achieving ≥50% or ≥70% reduction in visual analog scale pain score) and changes in Western Ontario and McMaster Universities Arthritis Index (WOMAC) total and subscale scores (pain, physical function and stiffness). Safety and injection site pain were also evaluated.
The study was conducted as a randomized, double-blind, placebo-controlled, single-dose trial of Resiniferatoxin. Eligible patients were aged 40 to 80 years with radiographic knee osteoarthritis (Kellgren-Lawrence Grade 2-4 in the last 3 years) and a baseline visual analog scale (0-100 mm) pain score ≥40 mm on motion in the target knee, with or without pain medication. 67 subjects were randomized to treatment with either Resiniferatoxin 100 ng (n=24) or 400 ng (n=23), or placebo (n=20), administered intraarticularly into the index knee. Intraarticular Ropivacaine (5 ml, 0.5%) was administered 15 mins before investigational medicinal product. Visual analog scale scores were used to evaluate pain on motion as the average of the last 2 days in a target knee between baseline and at 3 and 6 months post injection. Injection site pain was rated (visual analog scale) from baseline (−0.5 h) up to 3 h post intraarticular injections.

Where [3] appears, read: single intraarticular dose 100 ng or 400 ng.

Regarding `C=C(C)[C@]12C[C@@H](C)[C@@]34O[C@](Cc5ccccc5)(O[C@@H]1[C@@H]3C=C(COC(=O)Cc1ccc(O)c(OC)c1)C[C@]1(O)C(=O)C(C)=C[C@@H]41)O2` [Resiniferatoxin, 4-hydroxy-3-methoxy-benzeneacetic acid, [(2S,3aR,3bS,6aR,9aR,9bR, 10R,11aR)-3a,3b,6,6a,9a,10,11,11a-octahydro-6a-hydroxy-8,10-dimethyl-11a-(1-methylethenyl)-7-oxo-2-(phenylmethyl)-7H-2,9b-epoxyazuleno[5,4-e]-1,3-benzodioxol-5-yl]methyl ester], the efficacy result in series [1] is given as “Preliminary efficacy was also observed”. Besides, the “reduction in WOMAC total and subscale scores (pain, physical function and stiffness) compared to placebo” value in series [2] (100 ng and 400 ng, at both 3 and 6 months) is “greater reduction in WOMAC total and subscale scores”. For the same compound, the “subjects with severe adverse events” value in series [2] (100 ng group (n=24)) is 2 subjects. In addition, in series [2] (100 ng or 400 ng intraarticular), the “pain reduction (VAS pain on motion) compared to placebo” value is “greater pain reduction than subjects receiving placebo”. Besides, in series [2] (100 ng or 400 ng intraarticular, VAS up to 3 h post injection), the “injection site pain (procedural pain) compared to placebo” value was “generally higher”. Moreover, in series [2] (400 ng group (n=23)), the “subjects with severe adverse events” value turned out to be 3 subjects. Further, the “first visit at which reduction in VAS pain on motion was observed” value in series [2] (intention-to-treat population, first trial visit post-injection) is at most 8 days. Also, in series [2] (intention-to-treat population, last trial visit), the “last visit until which reduction in VAS pain on motion lasted” value is at least 6 month. Moreover, the “time of return of injection site pain to baseline” value in series [2] (post-injection) is on record as at most 3 h. Moreover, in series [2] (setting [3]), the analgesic onset result is given as “within one week of administration”; the “duration of analgesia during follow-up” value was “at least 3 months”; the safety and tolerability entry was “good safety profile and to have been well tolerated”.
